Laboratory results from patent publication US9017952B2, “Reagents for probing ROCKs activation” (National Yang Ming University, priority 2012, dated 2015).
Square brackets hold non-standard residues; d marks the D form. Ends that are not written are not given here. pS = N[C@@H](COP(=O)(O)O)C(=O)O

Key:
[1] = molecular target: myc-ROCKII (Bos taurus, UniProt Q28021); experiment: in vitro kinase reaction of immunoprecipitated myc-ROCKII with [γ-32P]ATP (autophosphorylation); format: biochemical; conditions: immunoprecipitates preincubated with 100 μM Y27632; 30° C., 20 minutes
myc-ROCKII, sequence (Q28021 6-1388): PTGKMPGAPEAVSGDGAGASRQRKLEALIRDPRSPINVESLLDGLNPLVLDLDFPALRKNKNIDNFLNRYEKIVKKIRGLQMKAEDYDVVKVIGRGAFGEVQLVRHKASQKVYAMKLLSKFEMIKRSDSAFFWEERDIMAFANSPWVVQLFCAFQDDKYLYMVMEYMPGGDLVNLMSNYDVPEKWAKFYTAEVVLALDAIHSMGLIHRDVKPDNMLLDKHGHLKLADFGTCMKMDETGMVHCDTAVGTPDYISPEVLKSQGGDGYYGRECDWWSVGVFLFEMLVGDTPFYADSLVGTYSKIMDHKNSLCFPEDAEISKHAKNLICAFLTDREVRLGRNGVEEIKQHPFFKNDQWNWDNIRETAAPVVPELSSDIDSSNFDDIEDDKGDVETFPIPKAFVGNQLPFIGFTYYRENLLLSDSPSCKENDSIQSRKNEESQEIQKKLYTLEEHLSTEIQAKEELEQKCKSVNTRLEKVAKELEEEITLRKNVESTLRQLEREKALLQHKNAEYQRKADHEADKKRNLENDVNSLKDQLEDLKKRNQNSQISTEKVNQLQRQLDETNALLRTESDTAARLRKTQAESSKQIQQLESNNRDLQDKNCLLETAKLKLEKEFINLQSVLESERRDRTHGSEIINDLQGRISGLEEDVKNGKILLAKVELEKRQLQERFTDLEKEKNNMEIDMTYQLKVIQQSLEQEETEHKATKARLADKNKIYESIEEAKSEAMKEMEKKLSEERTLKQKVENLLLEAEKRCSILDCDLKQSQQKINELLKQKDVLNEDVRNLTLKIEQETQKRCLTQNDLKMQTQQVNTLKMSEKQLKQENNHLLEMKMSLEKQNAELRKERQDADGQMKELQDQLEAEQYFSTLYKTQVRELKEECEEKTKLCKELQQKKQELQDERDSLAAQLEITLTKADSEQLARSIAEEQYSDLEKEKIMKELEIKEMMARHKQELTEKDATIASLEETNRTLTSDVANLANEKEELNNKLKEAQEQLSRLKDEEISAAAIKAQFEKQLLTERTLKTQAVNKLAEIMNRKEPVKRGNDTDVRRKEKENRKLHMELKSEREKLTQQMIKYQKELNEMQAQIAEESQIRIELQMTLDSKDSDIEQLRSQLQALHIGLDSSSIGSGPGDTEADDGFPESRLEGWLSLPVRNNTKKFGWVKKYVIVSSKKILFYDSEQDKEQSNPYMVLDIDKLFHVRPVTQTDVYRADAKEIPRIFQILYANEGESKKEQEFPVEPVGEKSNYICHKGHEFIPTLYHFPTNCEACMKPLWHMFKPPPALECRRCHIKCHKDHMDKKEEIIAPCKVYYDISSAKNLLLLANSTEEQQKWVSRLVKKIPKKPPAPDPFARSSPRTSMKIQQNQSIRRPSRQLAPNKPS
Experimental: myc-ROCKII-expressing cells were harvested in an immunoprecipitation (IP) buffer (1% NP-40, 5% glycerol, 50 mM Tris/HCl, pH 7.4, 150 mM NaCl, 1 mM PMSF (phenylmethylsulfonyl fluoride), and protease inhibitor cocktail). The lysates after pre-clearance were incubated with anti-myc antibody at 4° C. for 60 minutes, and then precipitated with protein A-agarose beads for 30 minutes. The immunoprecipitates were preincubated with or without 100 μM of Y27632 (ROCK inhibitor), which was followed by incubation with a IX kinase buffer (50 mM Tris/HCl, pH 7.4, 10 mM MgCl2, 1 mM EGTA (ethylene glycol tetraacetic acid), 0.5 mM DTT (dithiothreitol), 5 mM NaF, and 0.1 mM Na3VO4, 20 μM ATP) containing 5 μCi of [γ-^32p]ATP at 30° C. for 20 minutes. The immunoprecipitates (controls) from non-transfected cells were used backgrounds.
The myc-ROCKII protein overexpressed in HEK-293T cells was immunoprecipitated and subjected to an in vitro kinase reaction containing [γ-^32P]ATP in the presence or absence of the ROCK inhibitor Y27632.

[2] = molecular target: ROCKII Ser^1366 phosphorylation (Bos taurus, UniProt Q28021); experiment: Western blotting of Ser1366 phosphorylated myc-ROCKII from treated HEK293T cells; format: cell-based, human; conditions: Y27632 20 μM for 2 hours, probed with antibody-II
ROCKII Ser^1366 phosphorylation (Bos taurus, UniProt Q28021), sequence (Q28021 6-1388): as above
Experimental: myc-ROCKII-expressing cells were harvested in an immunoprecipitation (IP) buffer (1% NP-40, 5% glycerol, 50 mM Tris/HCl, pH 7.4, 150 mM NaCl, 1 mM PMSF (phenylmethylsulfonyl fluoride), and protease inhibitor cocktail). The lysates after pre-clearance were incubated with anti-myc antibody at 4° C. for 60 minutes, and then precipitated with protein A-agarose beads for 30 minutes. The immunoprecipitates were preincubated with or without 100 μM of Y27632 (ROCK inhibitor), which was followed by incubation with a IX kinase buffer (50 mM Tris/HCl, pH 7.4, 10 mM MgCl2, 1 mM EGTA (ethylene glycol tetraacetic acid), 0.5 mM DTT (dithiothreitol), 5 mM NaF, and 0.1 mM Na3VO4, 20 μM ATP) containing 5 μCi of [γ-^32p]ATP at 30° C. for 20 minutes. The immunoprecipitates (controls) from non-transfected cells were used backgrounds. The protein level of myc-ROCKII was detected by Western blotting with anti-myc antibody known by the skilled person in the art.

[3] = test system: ROCKII Ser^1366 phosphorylation; experiment: Western blotting of serum-starved mouse embryonic fibroblasts stimulated with nocodazole with or without Y27632; format: cell-based
Experimental: FIGS. 6(A) and 6(B) respectively illustrate the Western blotting patterns showing (A) antibody-I and (B) antibody-II against the protein extract from normal mouse embryonic fibroblasts (MEFs) stimulated with nocodazole(10 μM) in present or absent of Y27632 (10 μM).
In addition to the above human cell experiments, the level of Ser^1366 phosphorylation of ROCKII in animal cells is also researched in the present invention.

[4] = test system: Ser^1366 phosphorylated myc-ROCKII; experiment: Western blotting with anti-pSer1366 ROCKII antibody, with peptide neutralization and λPPase treatment; format: binding; conditions: peptide 0.2 μg/ml, antibody 1 μg/ml
Experimental: FIG. 2(A) illustrates the Western blotting pattern showing anti-pSer^1366 ROCKII antibody-II against the phosphorylated ROCKII. myc-ROCKII protein is obtained with extraction after the WT or S1366A mutant myc-ROCKII expression constructs are respectively transfected into HEK-293T cells and immunoprecipitated using anti-myc antibody, and Ser^1366 phosphorylation of myc-ROCKII is probed with antibody-II (1 μg/ml) with or without the competition of phosphorylated peptide-IIa (0.2 μg/ml).
FIG. 3 illustrates the Western blotting pattern showing the signal of immunoprecipitated WT myc-ROCKII with or without λ protein phosphatase (λPPase) at 30° C. for 20 minutes treatment probed with antibody-II
(§1) myc-ROCKII-expressing cells were harvested in an immunoprecipitation (IP) buffer (1% NP-40, 5% glycerol, 50 mM Tris/HCl, pH 7.4, 150 mM NaCl, 1 mM PMSF (phenylmethylsulfonyl fluoride), and protease inhibitor cocktail). The lysates after pre-clearance were incubated with anti-myc antibody at 4° C. for 60 minutes, and then precipitated with protein A-agarose beads for 30 minutes. […] The protein level of myc-ROCKII was detected by Western blotting with anti-myc antibody known by the skilled person in the art. […]

[5] = test system: ROCKII Ser^1366 phosphorylation; experiment: immunohistochemical staining of human breast tumor tissue with anti-pSer1366 ROCKII antibody and peptide competition; conditions: antibody 5 μg/ml, peptide 0.5 μg/ml
Excerpt: FIG. 7 illustrates the immunohistochemistry images showing RCOKII Ser^1366 phosphorylation in human breast tumor tissues. The tumor part and non-tumor part breast tissues of from two breast cancer patients are sectioned, and probed with anti-pSer^1366 ROCKII antibody in the presence of phosphorylated peptide-lib and unphosphorylated peptide-IIa. The normal rabbit IgG is the control for negative reaction, and #1 is negative for lymph node and #2 is positive for lymph node.
The tumor part and the non-tumor part of the breast tissue blocks were embedded in Tissue-Tek OCT™ compound, snap-frozen, and sectioned into 5 μm cryosections. The sections were fixed with 4% (w/v) paraformaldehyde for 15 minutes and placed in boiling citrate buffer for 10 minutes. Endogenous peroxidase activity was quenched by 3% […] for 10 minutes and this was followed by incubation with 5.5% (v/v) normal goat serum in Tris-buffer saline containing 0.1% of Triton X-100 (TBST) for blocking. Sections were subsequently incubated with primary antibody against pSer^1366 ROCKII (1:200 dilution; 5 μg/ml) in the present or absence of the phosphopeptide or non-phosphopeptide (0.5 μg/ml). […]
Next, whether ROCKII Ser^1366 phosphorylation can be detected is determined by anti-pSer^1366 ROCKII antibody-II. […]

[6] = test system: Ser^1333 phosphorylated flag-ROCKI; experiment: Western blotting with anti-pSer1333 ROCKI antibody, with peptide neutralization; format: binding; conditions: peptide 0.2 μg/ml, antibody 1 μg/ml
Experimental: FIG. 2(B) illustrates the Western blotting pattern showing anti-pSer^1333 ROCKI antibody-I against the phosphorylated ROCKI. flag-ROCKI protein is obtained with extraction after the WT or S1333A mutant flag-ROCKI expression constructs are respectively transfected to […] cells and immunoprecipitated using anti-flag antibody, and Ser^1333 phosphorylation of flag-ROCKI is probed with antibody-I (1 μg/ml) with or without the competition of phosphorylated peptide-Ia (0.2 μg/ml).
as §1, with “minutes. The immunoprecipitates were preincubated with or without 100 μM of Y27632 (ROCK inhibitor), which was followed by incubation with a IX kinase buffer (50 mM Tris/HCl, pH 7.4, 10 mM MgCl2, 1 mM EGTA (ethylene glycol tetraacetic acid), 0.5 mM DTT (dithiothreitol), 5 mM NaF, and 0.1 mM Na3VO4, 20 μM ATP) containing 5 μCi of [γ-^32p]ATP at 30° C. for 20 minutes.” for “minutes.”

[7] = MEFs serum-starved 24 hours, nocodazole 10 μM

C[C@@H](N)[C@H]1CC[C@H](C(=O)Nc2ccncc2)CC1 [Y27632]
phosphorylation signal of radioactively labeled ROCKII [1]: abolished the phosphorylation signal
signal level of Ser^1366 phosphorylated myc-ROCKII [2]: markedly decreased
enhanced phosphorylation signal (ROCKII Ser^1366, phospho-MLC) induced by nocodazole ([3]; MEFs, nocodazole 10 μM plus Y27632 10 μM): disappeared

COC(=O)Nc1nc2ccc(C(=O)c3cccs3)cc2[nH]1 [nocodazole]
downstream phosphor-MLC signal regulated by ROCKII [3, 7]: markedly increased
signal of ROCKII Ser^1366 phosphorylation [3, 7]: enhanced

N′-DPFARSSPRTpSMK-C′ (SEQ ID NO:6) (DPFARSSPRT[pS]MK) [peptide-lib]
neutralization of the autophosphorylated signal of anti-pSer^1366 ROCKII antibody [4]: neutralized
ROCKII Ser^1366 phosphorylation signal in IHC under peptide competition [5]: blocked

N′-RASPRTLpSTRS-C′ (SEQ ID NO:4) (RASPRTL[pS]TRS) [peptide-Ib]
neutralization of the autophosphorylated signal of anti-pSer^1333 ROCKI antibody [6]: neutralized
